Laboratory results as given in patent US11708562B2, “Differentiation of human embryonic stem cells” (Janssen Biotech, Inc., priority 2006, dated 2023).

Columns and labels:
[1] = tested on: human embryonic stem cell line H7; assay: FACS protein expression with time following activin A treatment (Table IIB); format: cell-based; conditions: AA 100 ng/ml
Description: (§1) The level of expression of definitive endoderm markers was examined by PCR (FIGS. 1A and 1B), FACS (results summarized in Table I), and immunohistochemistry (FIGS. 2A, 2B and 2C).
(§2) Adhered cells were removed from culture plates by five-minute incubation with TrypLE™ Express solution (Invitrogen, CA). Released cells were resuspended in human embryonic stem cell culture medium and recovered by centrifugation, followed by washing and resuspending the cells in a staining buffer consisting of 2% BSA, 0.05% sodium azide in PBS (Sigma, MO). As appropriate, the cells were Fc-receptor blocked for 15 minutes using a 0.1% γ-globulin (Sigma) solution. […] Controls included appropriate isotype matched antibodies, unstained cells, and cells stained only with secondary conjugated antibody. All incubations with antibodies were performed for 30 mins at 4° C. after which the cells were washed with the staining buffer. Samples that were stained with unconjugated primary antibodies were incubated for an additional 30 mins at 4° C. with secondary conjugated PE or -APC labeled antibodies. See Table I for a list of secondary antibodies used. Washed cells were pelleted and resuspended in the staining buffer, and the cell surface molecules were identified using a FACS Array (BD Biosciences) instrument, collecting at least 10,000 events.

[2] = tested on: H9P49 and H1P46 embryonic stem cells; assay: Definitive endoderm on MATRIGEL: effective dose of activin A with GSK-3B inhibitor or Wnt-3A; format: cell-based, human
Source text: FIGS. 31A, 31B, 31C and 31D is for H9P49 cells and FIGS. 31E and 31F is for H1P46 cells.

[3] = tested on: human embryonic stem cell line H1; assay: FACS protein expression following 5-day activin A treatment (Table IIC); format: cell-based; conditions: 5-day AA treatment
Description: as §1, §2

[4] = tested on: human embryonic stem cell line H9; assay: PCR of definitive endoderm and other lineage markers after activin A, cells on mouse embryonic fibroblasts; format: cell-based; conditions: 100 ng/ml activin A
Source text: as §1
Cells were harvested at the time points indicated in FIGS. 3A, 3B, 3C and 3D and assayed by PCR for the expression of genes shown (FIGS. 3A, 3B, 3C, 3D, 4A, 4B, 5A and 5B).
RNA samples were purified by binding to a silica-gel membrane (Rneasy Mini Kit, Qiagen, CA) in the presence of an ethanol-containing, high-salt buffer followed by washing to remove contaminants. The RNA was further purified using a TURBO DNA-free kit (Ambion, INC), and high-quality RNA was then eluted in water. Yield and purity were assessed by A260 and A280 readings on a spectrophotometer. cDNA copies were made from purified RNA using an ABI (ABI, CA) high capacity cDNA archive kit.
Final data were expressed relative to a calibrator sample.

H9 cultures = assay: Definitive endoderm on varying concentrations of […] with Wnt-3a (real-time PCR); format: cell-based, human; conditions: low serum, 100 ng/ml activin A and 20 ng/ml Wnt-3a
Description: H9 cells were cultured on plates coated with regular […] at a 1:60 to 1:10 dilution. The plates were coated with […] for 1 hr at room temperature.

Activin A: a member of the TGFβ superfamily; growth factor (R&D Systems) used to differentiate human embryonic stem cells
CXCR4+ C-Kit+ cells (FACS) ([1]; 1-day): 2.97% | CXCR4+ CD9+ cells (FACS) ([1]; 1-day): 8.13% | CXCR4+ EPCAM+ cells (FACS) ([1]; 1-day): 14.58% | CXCR4+ cells (FACS) ([1]; 1-day): 6% | CXCR4+ C-Kit+ cells (FACS) ([1]; 3-day): 31.56% | CXCR4+ CD9+ cells (FACS) ([1]; 3-day): 24.11% | CXCR4+ EPCAM+ cells (FACS) ([1]; 3-day): 36.67% | CXCR4+ cells (FACS) ([1]; 3-day): 38% | CXCR4+ C-Kit+ cells (FACS) ([1]; 5-day): 55.21% | CXCR4+ CD9+ cells (FACS) ([1]; 5-day): 2.1% | CXCR4+ EPCAM+ cells (FACS) ([1]; 5-day): 54.5% | CXCR4+ cells (FACS) ([1]; 5-day): 65.5% | lineage formed at lower doses of activin A [2]: formation of extraembryonic endoderm | CXCR4+ cells (FACS) [3]: 92.78% | CXCR4+/C-kit+ cells (FACS) [3]: 92.90% | CXCR4+/CD9+ cells (FACS) [3]: 7.03% | CXCR4+/CD99+ cells (FACS) [3]: 88.78% | CXCR4+/EPCAM cells (FACS) [3]: 87.99% | anterior endoderm markers Cerberus, Otx-1 and Hex genes [4]: significant up regulation | expression of extraembryonic endoderm markers Sox7 and AFP ([4]; up to seven days): time-dependent decrease | expression of CXCR4, GATA4, Goosecoid, HNF-3beta, and SOX-17 genes (H9 cultures): led to the expression
